Measurements from US7858652B2, “Substituted 4-imidazoles” (Hoffmann-La Roche Inc., priority 2006, dated 2010).

Molecular target: T1, TAAR1 (Mus musculus, UniProt Q923Y8)
T1 construct: expressed in transfected cells; host or cells: HEK293 cells (ATCC # CRL-1573), stably transfected with pIRESneo2 expression plasmid; membrane preparation
Assay: Radioligand binding to TAAR1, membranes of stably transfected HEK293 cells, [3H]-rac-2-(1,2,3,4-tetrahydro-1-naphthyl)-2-imidazoline
Settings: for Ki: mouse TAAR1, 4° C., 30 minutes incubation, radioligand at 60 nM
Procedure: The Expand High Fidelity PCR System (Roche Diagnostics) was used with 1.5 mM Mg^2+ and purified PCR products were cloned into pCR2.1-TOPO cloning vector (Invitrogen) following the instructions of the manufacturer. PCR products were subcloned into the pIRESneo2 vector (BD Clontech, Palo Alto, Calif.), and expression vectors were sequence verified before introduction in cell lines.
For the generation of stably transfected cell lines, HEK293 cells were transfected with the pIRESneo2 expression plasmids containing the TAAR coding sequences (described above) with Lipofectamine 2000 (Invitrogen) according to the instructions of the manufacturer, and 24 hours post transfection, the culture medium was supplemented with 1 mg/ml G418 (Sigma, Buchs, Switzerland). After a culture period of about 10 days, clones were isolated, expanded and tested for responsiveness to trace amines (all compounds purchased from Sigma) with the cAMP Biotrak Enzyme immunoassay (EIA) System (Amersham) following the non-acetylation EIA procedure provided by the manufacturer.
Cells at confluence were rinsed with ice-cold phosphate buffered saline without Ca^2+ and Mg^2+ containing 10 mM EDTA and pelleted by centrifugation at 1000 rpm for 5 minutes at 4° C. The pellet was then washed twice with ice-cold phosphate buffered saline and the cell pellet was frozen immediately by immersion in liquid nitrogen and stored until use at −80° C. The cell pellet was then suspended in 20 ml HEPES-NaOH (20 mM), pH 7.4 containing 10 mM EDTA, and homogenized with a Polytron (PT 3000, Kinematica) at 10,000 rpm for 10 seconds. The homogenate was centrifuged at 48,000×g for 30 minutes at 4° C. and the pellet resuspended in 20 ml HEPES-NaOH (20 mM), pH 7.4 containing 0.1 mM EDTA (buffer A), and homogenized with a Polytron at 10,000 rpm for 10 seconds. The homogenate was then centrifuged at 48,000×g for 30 minutes at 4° C. and the pellet resuspended in 20 ml buffer A, and homogenized with a Polytron at 10,000 rpm for 10 seconds. Protein concentration was determined by the method of Pierce (Rockford, Ill.). The homogenate was then centrifuged at 48,000×g for 10 minutes at 4° C., resuspended in HEPES-NaOH (20 mM), pH 7.0 including MgCl2 (10 mM) and CaCl2 ([…]) (buffer B) at 200 μg protein per ml and homogenized with a Polytron at 10,000 rpm for 10 seconds.
Binding assay was performed at 4° C. in a final volume of 1 ml, and with an incubation time of 30 minutes. […] Non-specific binding was defined as the amount of [^3H]-rac-2-(1,2,3,4-tetrahydro-1-naphthyl)-2-imidazoline bound in the presence of the appropriate unlabelled ligand (10 μM). Competing ligands were tested in a wide range of concentrations (10 pM-30 μM). […] Each experiment was performed in duplicate. All incubations were terminated by rapid filtration through UniFilter-96 plates (Packard Instrument Company) and glass filter GF/C) pre-soaked for at least 2 hours in polyethylenimine 0.3%, and using a Filtermate 96 Cell Harvester (Packard Instrument Company). The tubes and filters were then washed 3 times with 1 ml aliquots of cold buffer B. Filters were not dried and soaked in Ultima gold (45 μl/well, Packard Instrument Company) and bound radioactivity was counted by a TopCount Microplate Scintillation Counter (Packard Instrument Company).

T1 sequence (Q923Y8 whole entry): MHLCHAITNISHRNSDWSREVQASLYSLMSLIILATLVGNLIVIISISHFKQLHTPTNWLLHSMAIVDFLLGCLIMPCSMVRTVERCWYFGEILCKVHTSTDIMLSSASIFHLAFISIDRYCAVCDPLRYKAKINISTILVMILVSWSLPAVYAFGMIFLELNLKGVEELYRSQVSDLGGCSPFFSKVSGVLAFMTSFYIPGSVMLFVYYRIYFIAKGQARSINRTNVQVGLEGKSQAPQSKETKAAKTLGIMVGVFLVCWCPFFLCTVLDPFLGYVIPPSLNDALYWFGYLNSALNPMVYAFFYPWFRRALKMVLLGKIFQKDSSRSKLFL

CC1CCc2ccccc2N1Cc1cnc[nH]1 (single isomer, unassigned; (-)) [Example 47, (−)-1-(1H-Imidazol-4-ylmethyl)-2-methyl-1,2,3,4-tetrahydro-quinoline]
Ki: 0.0872 µM

c1ccc(COc2cccc3c2CCCN3Cc2cnc[nH]2)cc1 [Example 55, 5-Benzyloxy-1-(1H-imidazol-4-ylmethyl)-1,2,3,4-tetrahydro-quinoline]
Ki: 0.0046 µM

COc1ccc2c(c1)N(Cc1cnc[nH]1)CC2 [Example 27, 1-(1H-Imidazol-4-ylmethyl)-6-methoxy-2,3-dihydro-1H-indole]
Ki: 0.0389 µM

CC1Cc2cc(F)ccc2N1Cc1cnc[nH]1 (racemic) [Example 39, (R,S)-5-Fluoro-1-(1H-imidazol-4-ylmethyl)-2-methyl-2,3-dihydro-1H-indole]
Ki: 0.0493 µM

CC1CCc2ccccc2N1Cc1cnc[nH]1 (racemic) [Example 3, (R,S)-1-(1H-Imidazol-4-ylmethyl)-2-methyl-1,2,3,4-tetrahydro-quinoline]
Ki: 0.0258 µM

CC1Cc2cc(Cl)ccc2N1Cc1cnc[nH]1 (racemic) [Example 16, (R,S)-5-Chloro-1-(1H-imidazol-4-ylmethyl)-2-methyl-2,3-dihydro-1H-indole]
Ki: 0.0345 µM

CC1CCc2cc(F)ccc2N1Cc1cnc[nH]1 (racemic) [Example 6, (R,S)-6-Fluoro-1-(1H-imidazol-4-ylmethyl)-2-methyl-1,2,3,4-tetrahydro-quinoline]
Ki: 0.0598 µM

COc1ccc2c(c1)CCCCN2Cc1cnc[nH]1 [Example 43, 1-(3H-Imidazol-4-ylmethyl)-7-methoxy-2,3,4,5-tetrahydro-1H-benzo[b]azepine]
Ki: 0.0538 µM

Clc1ccc2c(c1)CCN2Cc1cnc[nH]1 [Example 14, 5-Chloro-1-(1H-imidazol-4-ylmethyl)-2,3-dihydro-1H-indole]
Ki: 0.0102 µM

Brc1ccc2c(c1)CCCN2Cc1cnc[nH]1 [Example 33, 6-Bromo-1-(H-imidazol-4-ylmethyl)-1,2,3,4-tetrahydro-quinoline]
Ki: 0.003 µM

Fc1cc2c(cc1F)N(Cc1cnc[nH]1)CC2 [Example 38, 5,6-Difluoro-1-(1H-imidazol-4-ylmethyl)-2,3-dihydro-1H-indole]
Ki: 0.0144 µM

Brc1ccc2c(c1)CCN2Cc1cnc[nH]1 [Example 4, 5-Bromo-1-(1H-imidazol-4-ylmethyl)-2,3-dihydro-1H-indole]
Ki: 0.0091 µM

Cc1ccc2c(c1)CCN2Cc1cnc[nH]1 [Example 29, 1-(1H-Imidazol-4-ylmethyl)-5-methyl-2,3-dihydro-1H-indole]
Ki: 0.0115 µM

CC1COc2ccccc2N1Cc1cnc[nH]1 (racemic) [Example 45, (R,S)-4-(1H-Imidazol-4-ylmethyl)-3-methyl-3,4-dihydro-2H-benzo[1,4]oxazine]
Ki: 0.017 µM

c1ccc2c(c1)CCCCN2Cc1cnc[nH]1 [Example 44, 1-(3H-Imidazol-4-ylmethyl)-2,3,4,5-tetrahydro-1H-benzo[b]azepine]
Ki: 0.0151 µM

COc1cccc2c1CCN2Cc1c[nH]cn1 [Example 31, 1-(1H-Imidazol-4-ylmethyl)-4-methoxy-2,3-dihydro-1H-indole]
Ki: 0.0243 µM

Cc1ccc2c(c1)N(Cc1cnc[nH]1)CC2 [Example 34, 1-(1H-Imidazol-4-ylmethyl)-6-methyl-2,3-dihydro-1H-indole]
Ki: 0.0133 µM

c1ccc(COc2ccc3c(c2)N(Cc2cnc[nH]2)CCC3)cc1 [Example 57, 7-Benzyloxy-1-(1H-imidazol-4-ylmethyl)-1,2,3,4-tetrahydro-quinoline]
Ki: 0.0702 µM

Clc1cccc2c1CCN2Cc1cnc[nH]1 [Example 25, 4-Chloro-1-(1H-imidazol-4-ylmethyl)-2,3-dihydro-1H-indole]
Ki: 0.0016 µM

Clc1cccc2c1N(Cc1cnc[nH]1)CC2 [Example 32, 7-Chloro-1-(H-imidazol-4-ylmethyl)-2,3-dihydro-1H-indole]
Ki: 0.0403 µM

COc1ccc2c(c1)CCN2Cc1cnc[nH]1 [Example 26, 1-(1H-Imidazol-4-ylmethyl)-5-methoxy-2,3-dihydro-1H-indole]
Ki: 0.0834 µM

CCc1cccc2c1N(Cc1cnc[nH]1)CC2 [Example 23, 7-Ethyl-1-(1H-imidazol-4-ylmethyl)-2,3-dihydro-1H-indole]
Ki: 0.0042 µM

CC1Cc2ccccc2N1Cc1cnc[nH]1 (racemic) [Example 1, (R,S)-1-(1H-Imidazol-4-ylmethyl)-2-methyl-2,3-dihydro-1H-indole]
Ki: 0.0688 µM

CC1CN(Cc2cnc[nH]2)c2ccccc21 (racemic) [Example 35, (R,S)-1-(1H-Imidazol-4-ylmethyl)-3-methyl-2,3-dihydro-1H-indole]
Ki: 0.0323 µM

Cc1cccc2c1N(Cc1cnc[nH]1)CC2 [Example 40, 1-(1H-Imidazol-4-ylmethyl)-7-methyl-2,3-dihydro-1H-indole]
Ki: 0.0405 µM

Fc1ccc2c(c1)N(Cc1cnc[nH]1)CC2 [Example 37, 6-Fluoro-1-(1H-imidazol-4-ylmethyl)-2,3-dihydro-1H-indole]
Ki: 0.0106 µM

Cc1cccc2c1CCN2Cc1cnc[nH]1 [Example 41, 1-(1H-Imidazol-4-ylmethyl)-4-methyl-2,3-dihydro-1H-indole]
Ki: 0.0104 µM

c1ccc(Oc2cccc3c2CCCN3Cc2c[nH]cn2)cc1 [Example 61, 1-(1H-Imidazol-4-ylmethyl)-5-phenoxy-1,2,3,4-tetrahydro-quinoline]
Ki: 0.0027 µM

c1ccc2c(c1)CCCN2Cc1cnc[nH]1 [Example 7, 1-(3H-Imidazol-4-ylmethyl)-1,2,3,4-tetrahydro-quinoline]
Ki: 0.0264 µM

c1ccc2c(c1)CCCC2C1=NCCN1 (racemic) [[^3H]-rac-2-(1,2,3,4-tetrahydro-1-naphthyl)-2-imidazoline, reference compound]
Kd (radioligand of the TAAR1 binding assay, species not stated, read-out: calculated Kd value of the radioligand): 0.06 µM

COc1cccc2c1N(Cc1cnc[nH]1)CC2 [Example 28, 1-(1H-Imidazol-4-ylmethyl)-7-methoxy-2,3-dihydro-1H-indole]
Ki: 0.0409 µM

Fc1ccc2c(c1)CCN2Cc1cnc[nH]1 [Example 36, 5-Fluoro-1-(1H-imidazol-4-ylmethyl)-2,3-dihydro-1H-indole]
Ki: 0.0277 µM

c1ccc2c(c1)OCCN2Cc1cnc[nH]1 [Example 18, 4-(1H-Imidazol-4-ylmethyl)-3,4-dihydro-2H-benzo[1,4]oxazine]
Ki: 0.0578 µM

CC1COc2ccccc2N1Cc1cnc[nH]1 (single isomer, unassigned; (-)) [Example 49, (−)-4-(1H-Imidazol-4-ylmethyl)-3-methyl-3,4-dihydro-2H-benzo[1,4]oxazine]
Ki: 0.0573 µM
